Literature values as cited in patent publication US20060116331A1, “Glycosylceramide analogues” (BIOMIRA, INC., priority 2002, published 2006).
Entries after “also recorded” stand apart in the source; their conditions may differ.

Experiments:
Vα14 NKT cells = conditions: for CD1d-restricted, TCR-mediated activation of Vα14 NKT cells (ability to elicit natural killer cell activity): Kawano et al. (1997); for stimulation of Vα14 NKT cells: structure-activity relationship studies
spleen cells = conditions: Ijima et al. (1998)

3,4-deoxy α-GalCer
CD1d-restricted, TCR-mediated activation of Vα14 NKT cells (ability to elicit natural killer cell activity) (Vα14 NKT cells): active

CCCCCCCCCCCCCCC[C@@H](O)[C@H](CO[C@H]1O[C@H](CO)[C@H](O)[C@H](O)[C@H]1O)NC(=O)CCCCCCCCCCCCC [AGL-517]
MLR activity (stimulation of spleen cell proliferation by pretreated DCs) (spleen cells): active

CCCCCCCCCCCCCCC[C@@H](O)[C@H](CO[C@H]1O[C@H](CO)[C@@H](O)[C@H](O)[C@H]1O)NC(=O)CCCCCCCCCCCCC [AGL-563]
MLR activity (stimulation of spleen cell proliferation by pretreated DCs) (spleen cells): reduced, but did not abolish, activity

CCCCCCCCCCCCCCCCCCCCCCCC(=O)N[C@@H](CO[C@H]1O[C@H](CO)[C@H](O)[C@H](O)[C@H]1O)[C@H](O)[C@H](O)CCCCC [OCH]
Th1/Th2 bias (NKT cells): induces Th2 bias

CCCCCCCCCCCCCCCCCCCCCCCCCC(=O)N[C@@H](CO[C@H]1O[C@H](CO)[C@H](O)[C@H](O)[C@H]1O)[C@H](O)[C@H](O)CCCCCCCCCCCCCC [α-GalCer, α-galactosylceramide]
CD1d-restricted, TCR-mediated activation of Vα14 NKT cells (ability to elicit natural killer cell activity) (Vα14 NKT cells): active; also recorded: most active
Th1/Th2 bias (NKT cells): unbiased

Galα1-2Galα1-1′Cer
CD1d-restricted, TCR-mediated activation of Vα14 NKT cells (ability to elicit natural killer cell activity) (Vα14 NKT cells): active

Galα1-4Glcβ1-1′Cer
CD1d-restricted, TCR-mediated activation of Vα14 NKT cells (ability to elicit natural killer cell activity) (Vα14 NKT cells): inactive

Galα1-6Galα1-1′Cer
CD1d-restricted, TCR-mediated activation of Vα14 NKT cells (ability to elicit natural killer cell activity) (Vα14 NKT cells): active

Galα1-6Glcα1-1′Cer
CD1d-restricted, TCR-mediated activation of Vα14 NKT cells (ability to elicit natural killer cell activity) (Vα14 NKT cells): active

Galβ1-3Galα1-1′Cer
CD1d-restricted, TCR-mediated activation of Vα14 NKT cells (ability to elicit natural killer cell activity) (Vα14 NKT cells): active

ceramide
CD1d-restricted, TCR-mediated activation of Vα14 NKT cells (ability to elicit natural killer cell activity) (Vα14 NKT cells): inactive

α-glucosylceramide [α-GlcCer]
CD1d-restricted, TCR-mediated activation of Vα14 NKT cells (ability to elicit natural killer cell activity) (Vα14 NKT cells): active
stimulation of Vα14 NKT cells (Vα14 NKT cells): readily stimulate

α-mannosylceramide [α-ManCer]
CD1d-restricted, TCR-mediated activation of Vα14 NKT cells (ability to elicit natural killer cell activity) (Vα14 NKT cells): inactive
stimulation of Vα14 NKT cells (Vα14 NKT cells): failed to stimulate
